Experimental data published in paper PMC11224556, “Next-generation of BBQ analogues that selectively target breast cancer” (Frontiers in Chemistry, 2024).

Each molecule was assayed against T1, AhR (Homo sapiens, UniProt P35869) (assay: AhR transcription reporter assay (HT29-Lucia AhR cells)). Conditions: 1 µM, 24 h, relative to DMSO.
T1 construct: This cell line stably expresses the secreted Lucia luciferase reporter gene under the control of a minimal promoter; host or cells: HT29-Lucia AhR reporter cells
T1 sequence (P35869 11-848): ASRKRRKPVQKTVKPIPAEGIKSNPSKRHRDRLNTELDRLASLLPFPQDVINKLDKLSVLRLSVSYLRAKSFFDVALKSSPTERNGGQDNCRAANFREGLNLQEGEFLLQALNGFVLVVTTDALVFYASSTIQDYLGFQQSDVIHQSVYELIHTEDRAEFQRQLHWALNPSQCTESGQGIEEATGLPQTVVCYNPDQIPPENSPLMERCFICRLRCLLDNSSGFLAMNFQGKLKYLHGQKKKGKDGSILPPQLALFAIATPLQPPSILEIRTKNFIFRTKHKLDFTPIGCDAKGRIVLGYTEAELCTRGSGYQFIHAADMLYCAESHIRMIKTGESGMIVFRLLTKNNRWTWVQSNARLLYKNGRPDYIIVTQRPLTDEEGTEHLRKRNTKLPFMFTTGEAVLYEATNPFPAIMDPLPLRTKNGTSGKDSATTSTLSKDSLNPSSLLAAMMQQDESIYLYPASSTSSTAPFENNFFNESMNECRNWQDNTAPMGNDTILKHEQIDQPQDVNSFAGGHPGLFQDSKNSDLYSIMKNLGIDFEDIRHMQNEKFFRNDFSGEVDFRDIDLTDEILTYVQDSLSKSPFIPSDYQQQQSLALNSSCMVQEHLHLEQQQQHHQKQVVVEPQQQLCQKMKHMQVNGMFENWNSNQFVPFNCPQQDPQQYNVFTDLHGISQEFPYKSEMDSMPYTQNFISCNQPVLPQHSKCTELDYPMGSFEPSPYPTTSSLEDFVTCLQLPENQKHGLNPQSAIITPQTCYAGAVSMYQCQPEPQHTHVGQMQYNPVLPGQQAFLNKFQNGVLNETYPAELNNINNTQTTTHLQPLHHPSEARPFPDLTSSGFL
Assay type: cell-based
Source text: Our previous studies have shown that the activity of NAP-6 (2) and 10-Cl-BBQ (3) required the activation of the AhR pathway and the induction of CYP1 family of phase I metabolising enzymes ([Gilbert et al., 2020]; [Baker et al., 2021a]). Therefore, we sought to determine the activation of AhR using a stable AhR reporter assay in HT29-Lucia™ AhR cells, in the presence of each BBQ analogue (Figure 3). Activation of the AhR was indicated by enhanced luminescence caused by the translocation of the AhR to the nucleus of the cell and interaction with the xenobiotic response elements imbedded in the luciferase gene.
Stock solutions were prepared as follows and stored as 20 mM DMSO solutions at −20 °C. All cell lines were cultured in a humidified atmosphere 5% CO2 at 37 °C. The cancer cell lines were maintained in Dulbecco’s modified Eagle’s medium (DMEM) (Trace Biosciences, Australia) supplemented with 10% foetal bovine serum (FBS), 10 mM sodium bicarbonate, penicillin (100 IU/mL), streptomycin (100 μg/mL), and glutamine (4 mM). The non-cancer MCF10A cell line was cultured in DMEM:F12 (1:1) cell culture media, 5% heat inactivated horse serum, supplemented with penicillin (50 IU/mL), streptomycin (50 μg/mL), 20 mM Hepes, L-glutamine (2 mM), epidermal growth factor (20 ng/mL), hydrocortisone (500 ng/mL), cholera toxin (100 ng/mL), and insulin (10 μg/mL). The AhR reporter cell line HT29-Lucia™ (Invivogen, United States) was maintained in DMEM supplemented with 10% heat inactivated FBS, L-glutamine (2 mM), penicillin (100 IU/mL), streptomycin (100 μg/mL), 100 μg/mL Normocin™, and 100 μg/mL of the selective antibiotic Zeocin™. All cell lines were purchased from the American Type Culture Collection (ATCC), except for A2780 and A431 which were from the European Collection of Authenticated Cell Cultures (ECACC), and SJ-G2 cell line which was from Dr Mary Danks, St Jude Children’s Research hospital, Memphis, TN.
The activity of the AhR signalling pathway was measured using the stably transfected AhR cell line, HT29-Lucia™ (Invivogen, United States). This cell line stably expresses the secreted Lucia luciferase reporter gene under the control of a minimal promoter coupled with the human CYP1A1 gene entire regulatory sequence, containing six DREs. The Lucia luciferase reporter protein is readily measurable in the cell culture supernatant using QUANTI-Luc™. For the determination of AhR activity, 4 × 10^4 cells in 180 μL was plated into each well of a 96 well micro-titre plate in the absence of antibiotics and allowed to culture for 24 h prior to the addition of test compounds in a volume of 20 μL. At the indicated time, 20 μL of cell supernatant was transferred to a white luminometer plate and 50 µL of QUANTI-Luc was added immediately prior to reading the luminescence using a GloMax Explorer Luminescence Plate Reader. The promoter activity was conducted in duplicate and the values expressed as fold-change relative to DMSO (0.1%) treated cells. The AhR ligand, FICZ (6-formylindolo[3,2-b]carbazole) and AhR inhibitor CH223191 were included for study as positive and negative controls, respectively. […] Results are presented as the mean ± standard error of the mean (SEM) of analysis conducted in duplicate and repeated on three separate occasions.
“3-Chloro-7H-benzo[de]benzo[4,5]imidazo[2,1-a]isoquinolin-7-one (10a) and 4-chloro-7H-benzo[de]benzo[4,5]imidazo[2,1-a]isoquinolin-7-one (10b) [Compound 10]” was tested, and the “AhR activation, Fold Reporter Induction” value was 2.7 fold.
“3-Nitro-7H-benzo[de]benzo[4,5]imidazo[2,1-a]isoquinolin-7-one (11a) and 4-nitro-7H-benzo[de]benzo[4,5]imidazo[2,1-a]isoquinolin-7-one (11b) [Compound 11]” was tested, and the “AhR activation, Fold Reporter Induction” value was 10.2 fold.
“7-Oxo-7H-benzo[de]benzo[4,5]imidazo[2,1-a]isoquinoline-10-carbonitrile (9a) and 7-oxo-7H-benzo[de]benzo[4,5]imidazo[2,1-a]isoquinoline-11-carbonitrile (9b) [Compound 9]” was tested, and the “AhR activation, Fold Reporter Induction” value was 2.5 fold.
“9-Methyl-7H-benzo[de]benzo[4,5]imidazo[2,1-a]isoquinolin-7-one (8a) and 12-methyl-7H-benzo[de]benzo[4,5]imidazo[2,1-a]isoquinolin-7-one (8b) [Compound 8]” was tested, and the “AhR activation, Fold Reporter Induction” value was 2.5 fold.
For “10-Methyl-7H-benzo[de]benzo[4,5]imidazo[2,1-a]isoquinolin-7-one (7a) and 11-methyl-7H-benzo[de]benzo[4,5]imidazo[2,1-a]isoquinolin-7-one (7b) [Compound 7]”, the “AhR activation, Fold Reporter Induction” value was 2.8 fold.
Nc1ccccc1N1C(=O)c2cccc3cccc(c23)C1=O [Compound 2, 2-(2-aminophenyl)-1H-benzo[de]isoquinoline-1,3(2H)-dione] was tested, and the “AhR activation, Fold Reporter Induction” value was 1.8 fold.
For O=c1c2cccc3cccc(c32)c2nc3ccc(Cl)cc3n12 [Compound 3, 10-Chloro-7H-benzo[de]benzo[4,5]imidazo[2,1-a]isoquinolin-7-one], the “AhR activation, Fold Reporter Induction” value was 2.7 fold.
In the case of O=c1c2cccc3cccc(c32)c2nc3cc(Cl)ccc3n12 [Compound 4, 11-Chloro-7H-benzo[de]benzo[4,5]imidazo[2,1-a]isoquinolin-7-one], the “AhR activation, Fold Reporter Induction” value is reported as 2.9 fold.
O=c1c2cccc3cccc(c32)c2nc3ccccc3n12 [Compound 5, 7H-Benzo[de]benzo[4,5]imidazo[2,1-a]isoquinolin-7-one] was tested, and the “AhR activation, Fold Reporter Induction” value was 3.1 fold.
For O=c1c2ccccc2cc2[nH]c3ccccc3n12 [Compound 12, Benzo[4,5]imidazo[1,2-b]isoquinolin-11(5H)-one], the “AhR activation, Fold Reporter Induction” value was 1.2 fold.
With O=c1c2cccc3cccc(c4n1Cc1ccccc1N=4)c32 [Compound 13, 7H,9H-benzo[4,5]isoquinolino[1,2-b]quinazolin-7-one] the “AhR activation, Fold Reporter Induction” value was 1.8 fold.
In the case of O=C(O)c1ccc2c3c1cccc3c(=O)n1c3ccccc3nc21 [Compound 14, reference compound], the “AhR activation, Fold Reporter Induction” value is reported as 1.5 fold.
